Source: US8293732B2, “Antibacterial quinoline derivatives” (Janssen Pharmaceutica N.V., priority 2006, dated 2012)
In brackets after ≈: the same amount, converted by molar mass.

Experiments:
M. Smegmatis (ATCC607) = assay: In-vitro anti-bacterial activity against strain M. Smegmatis ATCC607; type: cell-based; details: 90% inhibitory concentration for bacterial growth, 37° C., Alamar Blue fluorescence; for IC90: Mycolicibacterium smegmatis, ATCC607, 48 h, read-out: IC90 values MSM 1 ATCC607; for IC90 values MSM 1 ATCC607: 48 hours
Method: Flat-bottom, sterile 96-well plastic microtiter plates were filled with 180 μl of sterile deionized water, supplemented with 0.25% BSA. Subsequently, stock solutions (7.8× final test concentration) of compounds were added in 45 μl volumes to a series of duplicate wells in column 2 so as to allow evaluation of their effects on bacterial growth. Serial five-fold dilutions (45 μl in 180 μl) were made directly in the microtiter plates from column 2 to 11 using a customised robot system (Zymark Corp., Hopkinton, Mass.). Pipette tips were changed after every 3 dilutions to minimize pipetting errors with high hydrophobic compounds. Untreated control samples with (column 1) and without (column 12) inoculum were included in each microtiter plate. Approximately 250 CFU per well of bacteria inoculum, in a volume of 100 μl in 2.8× Mueller-Hinton broth medium, was added to the rows A to H, except column 12. The same volume of broth medium without inoculum was added to column 12 in row A to H. The cultures were incubated at 37° C. for 48 hours in a humidified 5% CO2 atmosphere (incubator with open air valve and continuous ventilation). At the end of incubation, two days after inoculation, the bacterial growth was quantitated fluorometrically. Therefore Alamar Blue (10×) was added to all wells in a volume of 20 μl and plates were incubated for another 2 hours at […]
The fluorescence was read in a computer-controlled fluorometer (Cytofluor, Biosearch) at an excitation wavelength of 530 nm and an emission wavelength of 590 nm (gain 30).
(§1) STA 29213 means Staphylococcus aureus (ATCC29213); SPN 6305 means Streptococcus pneumoniae (ATCC6305); MSM 607 means M. Smegmatis (ATCC607); ATCC means […].

[1] = test system: Staphylococcus aureus (ATCC29213); assay: In-vitro anti-bacterial microtitre plate assay, IC90 determination (STA 1 B29213); type: cell-based; details: 90% inhibitory concentration for bacterial growth, 37° C., resazurin fluorescence; for IC90: Staphylococcus aureus, ATCC29213, 24 h; for IC90 values STA 1 B29213: 24 hours
Method: (§2) The bacteria used in this study were grown overnight in flasks containing 100 ml Mueller-Hinton Broth (Becton Dickinson—cat. no. 275730) in sterile de-ionized water, with shaking, at 37° C. Stocks (0.5 ml/tube) were stored at −70° C. until use. Bacteria titrations were performed in microtiter plates to detect the TCID50, in which the TCID50 represents the dilution that gives rise to bacterial growth in 50% of inoculated cultures.
(§3) In general, an inoculum level of approximately 100 TCID50 was used for susceptibility testing.
(§4) Flat-bottom, sterile 96-well plastic microtiter plates were filled with 180 μl of sterile deionized water, supplemented with 0.25% BSA. Subsequently, stock solutions (7.8× final test concentration) of compounds were added in 45 μl volumes in column 2. Serial five-fold dilutions (45 μl in 180 μl) were made directly in the microtiter plates from column 2 to reach column 11. Untreated control samples with (column 1) and without (column 12) inoculum were included in each microtiter plate. Depending on the bacteria type, approximately 10 to 60 CFU per well of bacteria inoculum (100 TCID50), in a volume of 100 μl in 2.8× Mueller-Hinton broth medium, was added to the rows A to H, except column 12. The same volume of broth medium without inoculum was added to column 12 in row A to H. The cultures were incubated at 37° C. for 24 hours under a normal atmosphere (incubator with open air valve and continuous ventilation). At the end of incubation, one day after inoculation, the bacterial growth was quantitated fluorometrically. Therefore resazurin (0.6 mg/ml) was added in a volume of 20 μl to all wells 3 hours after inoculation, and the plates were re-incubated overnight. A change in colour from blue to pink indicated the growth of bacteria. The fluorescence was read in a computer-controlled fluorometer (Cytofluor Biosearch) at an excitation wavelength of 530 nm and an emission wavelength of 590 nm. The % growth inhibition achieved by the compounds was calculated according to standard methods.
as §1

[2] = test system: Streptococcus pneumoniae (ATCC6305); assay: In-vitro anti-bacterial microtitre plate assay, IC90 determination (SPN 1 6305); type: cell-based; details: 90% inhibitory concentration for bacterial growth, 37° C., resazurin fluorescence; for IC90 values SPN 1 6305: 24 hours; for IC90: Streptococcus pneumoniae, ATCC6305, 24 h
Method: as §2, §3, §4, §1

| IC90 [1] | melting point | IC90 values SPN 1 6305 [2] | IC90 values STA 1 B29213 [1] | IC90 [2] | Compound | IC90 (M. Smegmatis (ATCC607)) | IC90 values MSM 1 ATCC607 (M. Smegmatis (ATCC607)) |
| --- | --- | --- | --- | --- | --- | --- | --- |
| 8.9 mg/L (≈ 15.8 µM) | 148 °C | 8.9 mg/L (≈ 15.8 µM) |  |  | COc1nc2ccc(Br)cc2cc1C(c1ccccc1)C(O)(CCCCN(C)C)COc1ccccc1 (single isomer, unassigned) [Compound 1] | 2.2 mg/L (≈ 3.9 µM) |  |
|  | 151 °C | 2.2 mg/L (≈ 3.9 µM) | 4.5 mg/L (≈ 7.99 µM) |  | COc1nc2ccc(Br)cc2cc1C(c1ccccc1)C(O)(CCCCN(C)C)COc1ccccc1 (single isomer, unassigned) [Compound 2] |  | 1.8 mg/L (≈ 3.19 µM) |
|  | 159 °C | 1.7 mg/L (≈ 3.09 µM) | 55.0 mg/L (≈ 100 µM) |  | COc1nc2ccc(Br)cc2cc1C(c1ccc2c(c1)OCO2)C(O)(CCN(C)C)c1ccccc1 (single isomer, unassigned) [Compound 30] |  | 0.4 mg/L (≈ 0.728 µM) |
|  | 210 °C |  | 1.84 mg/L (≈ 3.16 µM) |  | COc1nc2ccccc2cc1C(c1ccc(-c2ccncc2)cc1)C(O)(CCCCN(C)C)c1ccc2ccccc2c1 (single isomer, unassigned) [Compound 48] |  | 1.04 mg/L (≈ 1.79 µM) |
| 1.9 mg/L (≈ 3.25 µM) | 190 °C |  |  | 1.9 mg/L (≈ 3.25 µM) | COc1nc2ccccc2cc1C(c1ccc(-c2cnn(C)c2)cc1)C(O)(CCCCN(C)C)c1ccc2ccccc2c1 (single isomer, unassigned) [Compound 10] |  | 0.4 mg/L (≈ 0.684 µM) |
|  | 122 °C | 12.6 mg/L (≈ 19.9 µM) | 10.0 mg/L (≈ 15.8 µM) |  | COc1nc2ccc(Br)cc2cc1C(c1ccccc1)C(O)(CCCCN1CCN(C)CC1)COCc1ccccc1 (single isomer, unassigned) [Compound 28] |  | 4.5 mg/L (≈ 7.11 µM) |
|  | 146 °C |  | 4.1 mg/L (≈ 7.1 µM) | 4.1 mg/L (≈ 7.1 µM) | COc1nc2ccc(Br)cc2cc1C(c1ccccc1)C(O)(CCCCN(C)C)COc1ccc(C)cc1 (single isomer, unassigned) [Compound 5] | 1.8 mg/L (≈ 3.12 µM) |  |
|  | 144 °C | 9.8 mg/L (≈ 15.8 µM) | 49.1 mg/L (≈ 79.4 µM) |  | COc1nc2ccc(Br)cc2cc1C(c1ccccc1)C(O)(CCCCN1CCN(C)CC1)COc1ccccc1 (single isomer, unassigned) [Compound 20] |  | 9.8 mg/L (≈ 15.8 µM) |
|  | 118 °C | 2.4 mg/L (≈ 4.01 µM) | 1.9 mg/L (≈ 3.18 µM) |  | COc1nc2ccc(Br)cc2cc1C(c1ccc(Cl)cc1)C(O)(CCCCN(C)C)COc1ccccc1 (single isomer, unassigned) [Compound 4] |  | 1.9 mg/L (≈ 3.18 µM) |
| 2.01 mg/L (≈ 3.16 µM) |  | 2.01 mg/L (≈ 3.16 µM) |  |  | COc1nc2ccc(Br)cc2cc1C(c1ccccc1)C(O)(CCCCN(C)C)c1cccc(/C=C/c2ccccc2)c1 (single isomer, unassigned) [Compound 41] |  | 0.40 mg/L (≈ 0.629 µM) |
|  |  | 2.6 mg/L (≈ 3.98 µM) | 2.1 mg/L (≈ 3.22 µM) |  | COc1nc2ccc(Br)cc2cc1C(c1ccc(Cl)cc1)C(O)(CCCCN1CCN(C)CC1)COc1ccccc1 (single isomer, unassigned) [Compound 21] |  | 2.1 mg/L (≈ 3.22 µM) |
| 2 mg/L (≈ 3.24 µM) |  |  |  | 2 mg/L (≈ 3.24 µM) | COc1nc2ccc(Br)cc2cc1C(c1ccccc1)C(O)(CCCCN1CCCCC1)COCc1ccccc1 (single isomer, unassigned) [Compound 26] | 2 mg/L (≈ 3.24 µM) |  |
|  |  | 2.02 mg/L (≈ 3.16 µM) | 2.02 mg/L (≈ 3.16 µM) |  | COc1ccc(-c2cccc(C(O)(CCCCN(C)C)C(c3ccccc3)c3cc4cc(Br)ccc4nc3OC)c2)cc1 (single isomer, unassigned) [Compound 39] |  | 2.02 mg/L (≈ 3.16 µM) |
|  |  | 1.82 mg/L (≈ 2.83 µM) | 2.04 mg/L (≈ 3.17 µM) |  | COc1nc2ccc(Br)cc2cc1C(c1ccccc1)C(O)(CCCCN(C)C)c1cccc(-c2ccc(Cl)cc2)c1 (single isomer, unassigned) [Compound 33] | 2.04 mg/L (≈ 3.17 µM) |  |
|  |  |  | 9.2 mg/L (≈ 15.8 µM) | 1.8 mg/L (≈ 3.09 µM) | COc1nc2ccccc2cc1C(c1cccc(-c2ccncc2)c1)C(O)(CCCCN(C)C)c1ccc2ccccc2c1 (single isomer, unassigned) [Compound 8] | 1.8 mg/L (≈ 3.09 µM) |  |
|  |  | 1.93 mg/L (≈ 3.17 µM) | 1.93 mg/L (≈ 3.17 µM) |  | COc1nc2ccc(Br)cc2cc1C(c1ccccc1)C(O)(CCCCN(C)C)c1cccc(-c2ccccc2)c1 (single isomer, unassigned) [Compound 32] |  | 0.97 mg/L (≈ 1.59 µM) |
|  |  | 2.2 mg/L (≈ 3.48 µM) | 4.5 mg/L (≈ 7.11 µM) |  | COc1nc2ccc(Br)cc2cc1C(c1ccccc1)C(O)(CCCCN1CCN(C)CC1)COCc1ccccc1 (single isomer, unassigned) [Compound 27] |  | 2.0 mg/L (≈ 3.16 µM) |
| 8.58 mg/L (≈ 15.8 µM) | 122 °C |  |  |  | COc1nc2ccc(Br)cc2cc1C(c1ccoc1)C(O)(CCc1ccc(F)cc1)CCN(C)C (single isomer, unassigned) [Compound 53] | 1.71 mg/L (≈ 3.16 µM) |  |
|  | 168 °C | 10.0 mg/L (≈ 15.8 µM) | 39.9 mg/L (≈ 63.1 µM) |  | COc1nc2ccc(Br)cc2cc1C(c1ccccc1)C(O)(CCCCN1CCN(C)CC1)COc1ccc(C)cc1 (single isomer, unassigned) [Compound 24] |  | 10.0 mg/L (≈ 15.8 µM) |
|  |  | 1.8 mg/L (≈ 3.09 µM) | 1.8 mg/L (≈ 3.09 µM) |  | COc1nc2ccccc2cc1C(c1cccc(-c2ccncc2)c1)C(O)(CCCCN(C)C)c1ccc2ccccc2c1 (single isomer, unassigned) [Compound 9] |  | 1.5 mg/L (≈ 2.58 µM) |
|  |  | 0.898 mg/L (≈ 1.41 µM) | 2.01 mg/L (≈ 3.16 µM) |  | COc1nc2ccc(Br)cc2cc1C(c1ccccc1)C(O)(CCCCN(C)C)c1cccc(/C=C/c2ccccc2)c1 (single isomer, unassigned) [Compound 55] |  | 1.792 mg/L (≈ 2.82 µM) |
|  | 197 °C | 2.0 mg/L (≈ 3.5 µM) | 1.8 mg/L (≈ 3.15 µM) |  | COc1nc2ccccc2cc1C(c1ccc(-c2ccoc2)cc1)C(O)(CCCCN(C)C)c1ccc2ccccc2c1 (single isomer, unassigned) [Compound 13] |  | 1.3 mg/L (≈ 2.28 µM) |
|  | 158 °C | 11.6 mg/L (≈ 17.8 µM) | 32.7 mg/L (≈ 50.1 µM) |  | COc1nc2ccc(Br)cc2cc1C(c1ccc(Cl)cc1)C(O)(CCCCN1CCN(C)CC1)COc1ccccc1 (single isomer, unassigned) [Compound 22] |  | 8.2 mg/L (≈ 12.6 µM) |
| 2 mg/L (≈ 3.17 µM) | 141 °C |  |  | 2 mg/L (≈ 3.17 µM) | COc1nc2ccccc2cc1C(c1cccc(-c2cnc3ccccc3c2)c1)C(O)(CCCCN(C)C)c1ccc2ccccc2c1 (single isomer, unassigned) [Compound 16] | 2 mg/L (≈ 3.17 µM) |  |
|  | 130 °C | 5.2 mg/L (≈ 9 µM) | 9.2 mg/L (≈ 15.9 µM) |  | COc1nc2ccc(Br)cc2cc1C(c1ccccc1)C(O)(CCCCN(C)C)COc1ccc(C)cc1 (single isomer, unassigned) [Compound 6] |  | 1.8 mg/L (≈ 3.12 µM) |
